ChEMBL document CHEMBL5465560, “Selectivity Literature for EUbOPEN Chemogenomic Library” (2024)

Key:
[1] = target: Activin receptor type-2B (Homo sapiens) (UniProt Q13705); test: Selectivity interaction (KinomeScan (DiscoverX)) EUB0001049a ACVR2B; details: at 1 µM
[2] = target: TGF-beta receptor type-2 (Homo sapiens) (UniProt P37173); test: Selectivity interaction (KinomeScan (DiscoverX)) EUB0001079a TGFBR2; details: at 1 µM
[3] = target: T1, Kinase suppressor of Ras 1 (Homo sapiens) (UniProt Q8IVT5); test: Selectivity interaction (ActivX KiNativ screen (kinase selectivity in THP-1 cell lysates)) EUB0000639a KSR1; format: subcellular; details: lysate
T1 sequence (whole entry): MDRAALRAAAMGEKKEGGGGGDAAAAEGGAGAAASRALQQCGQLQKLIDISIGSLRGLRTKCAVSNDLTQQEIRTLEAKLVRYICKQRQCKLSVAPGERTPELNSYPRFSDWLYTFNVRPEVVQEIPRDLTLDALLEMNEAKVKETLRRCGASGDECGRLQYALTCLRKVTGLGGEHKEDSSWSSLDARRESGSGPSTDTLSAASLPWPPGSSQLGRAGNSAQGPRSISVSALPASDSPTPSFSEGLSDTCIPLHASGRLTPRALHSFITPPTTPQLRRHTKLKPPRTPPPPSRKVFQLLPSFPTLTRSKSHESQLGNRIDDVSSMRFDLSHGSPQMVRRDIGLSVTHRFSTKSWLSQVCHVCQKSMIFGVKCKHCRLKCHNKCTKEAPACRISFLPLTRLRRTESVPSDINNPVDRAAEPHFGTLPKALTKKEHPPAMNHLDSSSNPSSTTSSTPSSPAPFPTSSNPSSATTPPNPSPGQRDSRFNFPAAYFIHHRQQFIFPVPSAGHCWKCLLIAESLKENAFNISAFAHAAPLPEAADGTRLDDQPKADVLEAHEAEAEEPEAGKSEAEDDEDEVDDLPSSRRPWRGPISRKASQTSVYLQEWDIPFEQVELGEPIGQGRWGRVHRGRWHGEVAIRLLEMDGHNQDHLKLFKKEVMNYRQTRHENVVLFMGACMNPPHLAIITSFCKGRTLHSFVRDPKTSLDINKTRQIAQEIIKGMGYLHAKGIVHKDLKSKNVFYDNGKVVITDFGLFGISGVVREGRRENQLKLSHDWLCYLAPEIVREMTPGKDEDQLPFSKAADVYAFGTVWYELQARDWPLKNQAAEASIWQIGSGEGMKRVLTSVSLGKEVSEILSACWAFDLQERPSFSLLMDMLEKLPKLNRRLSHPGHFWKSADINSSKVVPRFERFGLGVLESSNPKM

[4] = target: Serine/threonine-protein kinase 32C (Homo sapiens) (UniProt Q86UX6); test: Selectivity interaction (KinomeScan (DiscoverX)) EUB0000092b STK32C; details: at 10 µM
[5] = target: Mitogen-activated protein kinase 11 (Homo sapiens) (UniProt Q15759); test: Selectivity interaction (Kinase screening (Upstate/Millipore)) EUB0000604a MAPK11
[6] = target: T2, Dual specificity tyrosine-phosphorylation-regulated kinase 2 (Homo sapiens) (UniProt Q92630); test: Selectivity interaction (LanthaScreen Eu Kinase Binding Assay) EUB0001632a DYRK2; details: at 10 µM
T2 sequence (whole entry): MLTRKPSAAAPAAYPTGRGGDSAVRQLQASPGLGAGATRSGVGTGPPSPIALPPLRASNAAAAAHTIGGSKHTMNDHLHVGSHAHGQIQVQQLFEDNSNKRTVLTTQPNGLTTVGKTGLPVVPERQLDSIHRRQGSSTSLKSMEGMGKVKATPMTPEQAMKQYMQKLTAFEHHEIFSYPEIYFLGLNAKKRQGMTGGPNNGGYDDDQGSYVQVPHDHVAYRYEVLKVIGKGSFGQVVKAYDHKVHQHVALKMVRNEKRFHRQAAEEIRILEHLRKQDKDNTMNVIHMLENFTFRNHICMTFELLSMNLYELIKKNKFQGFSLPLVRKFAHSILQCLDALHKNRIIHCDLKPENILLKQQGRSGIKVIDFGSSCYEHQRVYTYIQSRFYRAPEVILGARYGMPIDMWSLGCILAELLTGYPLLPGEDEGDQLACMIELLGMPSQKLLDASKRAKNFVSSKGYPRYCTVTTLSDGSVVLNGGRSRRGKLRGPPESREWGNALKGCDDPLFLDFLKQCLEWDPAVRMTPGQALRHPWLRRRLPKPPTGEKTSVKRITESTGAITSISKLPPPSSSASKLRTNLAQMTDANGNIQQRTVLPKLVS

[7] = target: T3, Homeodomain-interacting protein kinase 4 (Homo sapiens) (UniProt Q8NE63); test: Selectivity interaction (ProQinase) EUB0000171b HIPK4
T3 sequence (whole entry): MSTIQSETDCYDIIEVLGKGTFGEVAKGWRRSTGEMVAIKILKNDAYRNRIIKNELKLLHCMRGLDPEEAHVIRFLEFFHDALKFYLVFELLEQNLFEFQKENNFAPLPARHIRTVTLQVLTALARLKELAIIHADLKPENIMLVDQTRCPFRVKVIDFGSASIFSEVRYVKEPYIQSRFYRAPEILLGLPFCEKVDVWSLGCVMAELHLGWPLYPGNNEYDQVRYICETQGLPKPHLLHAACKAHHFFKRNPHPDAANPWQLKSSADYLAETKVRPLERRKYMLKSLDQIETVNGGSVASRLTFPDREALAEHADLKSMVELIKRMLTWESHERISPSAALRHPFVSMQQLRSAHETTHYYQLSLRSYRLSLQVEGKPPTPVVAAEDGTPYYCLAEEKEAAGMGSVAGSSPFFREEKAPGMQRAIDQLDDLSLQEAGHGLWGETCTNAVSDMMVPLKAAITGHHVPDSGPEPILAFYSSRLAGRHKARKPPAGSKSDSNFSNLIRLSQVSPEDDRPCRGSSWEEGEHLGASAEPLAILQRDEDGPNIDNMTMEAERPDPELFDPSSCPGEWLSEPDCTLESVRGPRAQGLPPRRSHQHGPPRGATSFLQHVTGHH

[8] = target: Dual specificity tyrosine-phosphorylation-regulated kinase 1B (Homo sapiens, UniProt Q9Y463); test: Selectivity interaction (ProQinase) EUB0000171b DYRK1B
[9] = target: Myosin light chain kinase, smooth muscle (Homo sapiens, UniProt Q15746); test: Selectivity interaction (ProQinase) EUB0000171b MYLK
Sequence of Myosin light chain kinase, smooth muscle (Q15746 whole entry): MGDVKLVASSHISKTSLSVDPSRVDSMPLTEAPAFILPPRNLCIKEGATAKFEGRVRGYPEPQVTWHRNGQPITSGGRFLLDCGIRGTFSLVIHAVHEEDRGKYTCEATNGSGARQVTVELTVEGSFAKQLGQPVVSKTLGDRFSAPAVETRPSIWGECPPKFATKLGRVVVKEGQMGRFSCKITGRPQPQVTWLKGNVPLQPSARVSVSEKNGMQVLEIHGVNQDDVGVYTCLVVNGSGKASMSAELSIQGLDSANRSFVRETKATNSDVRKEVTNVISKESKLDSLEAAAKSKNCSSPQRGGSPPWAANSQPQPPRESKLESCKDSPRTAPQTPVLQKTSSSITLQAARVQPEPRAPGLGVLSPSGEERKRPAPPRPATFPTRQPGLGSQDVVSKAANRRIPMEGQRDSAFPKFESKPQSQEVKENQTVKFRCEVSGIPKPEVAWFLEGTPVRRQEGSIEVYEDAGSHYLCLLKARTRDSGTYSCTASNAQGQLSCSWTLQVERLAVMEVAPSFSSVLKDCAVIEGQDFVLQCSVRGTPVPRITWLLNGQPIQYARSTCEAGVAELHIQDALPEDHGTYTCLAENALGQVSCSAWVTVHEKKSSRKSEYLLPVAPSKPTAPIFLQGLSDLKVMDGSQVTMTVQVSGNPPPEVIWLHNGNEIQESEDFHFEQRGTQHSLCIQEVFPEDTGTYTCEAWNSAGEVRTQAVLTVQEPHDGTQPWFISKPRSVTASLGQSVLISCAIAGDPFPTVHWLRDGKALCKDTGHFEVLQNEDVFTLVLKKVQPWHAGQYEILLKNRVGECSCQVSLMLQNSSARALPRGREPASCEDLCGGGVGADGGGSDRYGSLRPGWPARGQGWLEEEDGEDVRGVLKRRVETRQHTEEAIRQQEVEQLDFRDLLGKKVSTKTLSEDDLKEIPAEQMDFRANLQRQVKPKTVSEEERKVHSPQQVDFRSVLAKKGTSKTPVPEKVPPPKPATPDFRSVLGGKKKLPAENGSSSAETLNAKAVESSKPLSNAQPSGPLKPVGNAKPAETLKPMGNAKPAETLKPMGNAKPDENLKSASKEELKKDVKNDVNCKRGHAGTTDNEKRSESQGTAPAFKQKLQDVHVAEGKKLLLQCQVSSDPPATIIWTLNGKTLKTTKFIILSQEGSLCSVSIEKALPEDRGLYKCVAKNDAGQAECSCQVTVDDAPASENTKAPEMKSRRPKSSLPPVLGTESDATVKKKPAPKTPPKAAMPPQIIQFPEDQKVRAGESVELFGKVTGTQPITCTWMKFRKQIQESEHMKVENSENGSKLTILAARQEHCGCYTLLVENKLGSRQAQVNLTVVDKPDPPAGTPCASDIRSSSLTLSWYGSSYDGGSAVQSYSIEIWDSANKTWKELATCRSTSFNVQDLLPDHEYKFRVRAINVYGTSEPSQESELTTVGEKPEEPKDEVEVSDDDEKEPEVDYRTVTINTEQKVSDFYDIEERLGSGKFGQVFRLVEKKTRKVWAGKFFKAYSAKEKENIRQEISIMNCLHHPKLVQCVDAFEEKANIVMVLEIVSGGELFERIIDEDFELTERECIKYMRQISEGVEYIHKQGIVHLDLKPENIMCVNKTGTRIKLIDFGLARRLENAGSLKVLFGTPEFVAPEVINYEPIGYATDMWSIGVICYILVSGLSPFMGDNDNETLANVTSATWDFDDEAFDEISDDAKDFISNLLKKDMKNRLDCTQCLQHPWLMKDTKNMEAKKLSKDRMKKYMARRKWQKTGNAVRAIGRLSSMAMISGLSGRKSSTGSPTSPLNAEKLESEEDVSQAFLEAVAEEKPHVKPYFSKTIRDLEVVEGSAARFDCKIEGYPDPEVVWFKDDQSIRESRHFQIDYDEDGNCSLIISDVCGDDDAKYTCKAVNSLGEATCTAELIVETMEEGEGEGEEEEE

Sequence of Dual specificity tyrosine-phosphorylation-regulated kinase 1B (Q9Y463 whole entry, looked up): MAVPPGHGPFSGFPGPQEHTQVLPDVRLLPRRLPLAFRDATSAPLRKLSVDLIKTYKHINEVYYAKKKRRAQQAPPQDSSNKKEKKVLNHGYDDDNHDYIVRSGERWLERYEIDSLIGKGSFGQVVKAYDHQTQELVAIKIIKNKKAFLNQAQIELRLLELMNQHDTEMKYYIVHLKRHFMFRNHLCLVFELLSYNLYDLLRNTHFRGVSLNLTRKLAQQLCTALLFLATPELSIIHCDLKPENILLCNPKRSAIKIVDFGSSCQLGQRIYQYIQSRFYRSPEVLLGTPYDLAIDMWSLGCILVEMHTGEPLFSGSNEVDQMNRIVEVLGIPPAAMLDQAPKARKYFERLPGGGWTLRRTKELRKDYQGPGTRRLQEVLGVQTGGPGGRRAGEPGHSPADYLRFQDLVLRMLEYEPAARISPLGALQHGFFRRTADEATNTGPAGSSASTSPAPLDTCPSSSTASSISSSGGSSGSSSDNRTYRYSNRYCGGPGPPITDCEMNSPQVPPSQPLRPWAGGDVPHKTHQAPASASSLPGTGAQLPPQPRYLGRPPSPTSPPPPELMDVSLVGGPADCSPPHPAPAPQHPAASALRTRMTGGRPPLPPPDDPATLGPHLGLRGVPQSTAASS
Sequence of TGF-beta receptor type-2 (Homo sapiens) (P37173 whole entry): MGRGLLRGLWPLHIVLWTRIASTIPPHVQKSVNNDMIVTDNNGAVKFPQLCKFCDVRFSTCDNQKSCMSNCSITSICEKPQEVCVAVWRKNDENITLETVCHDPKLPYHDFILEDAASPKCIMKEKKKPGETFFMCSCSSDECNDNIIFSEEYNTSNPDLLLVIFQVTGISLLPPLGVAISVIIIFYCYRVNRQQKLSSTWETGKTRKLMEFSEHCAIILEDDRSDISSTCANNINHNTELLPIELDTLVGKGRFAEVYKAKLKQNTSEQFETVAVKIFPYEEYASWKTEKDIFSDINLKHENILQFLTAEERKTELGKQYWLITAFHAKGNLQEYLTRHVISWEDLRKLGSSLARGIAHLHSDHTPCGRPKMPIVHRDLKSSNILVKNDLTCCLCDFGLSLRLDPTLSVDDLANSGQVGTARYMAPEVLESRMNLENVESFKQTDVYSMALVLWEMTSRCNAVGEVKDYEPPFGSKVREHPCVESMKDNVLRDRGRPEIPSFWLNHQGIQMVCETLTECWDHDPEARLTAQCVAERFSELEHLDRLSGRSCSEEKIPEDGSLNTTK
Sequence of Mitogen-activated protein kinase 11 (Homo sapiens) (Q15759 whole entry): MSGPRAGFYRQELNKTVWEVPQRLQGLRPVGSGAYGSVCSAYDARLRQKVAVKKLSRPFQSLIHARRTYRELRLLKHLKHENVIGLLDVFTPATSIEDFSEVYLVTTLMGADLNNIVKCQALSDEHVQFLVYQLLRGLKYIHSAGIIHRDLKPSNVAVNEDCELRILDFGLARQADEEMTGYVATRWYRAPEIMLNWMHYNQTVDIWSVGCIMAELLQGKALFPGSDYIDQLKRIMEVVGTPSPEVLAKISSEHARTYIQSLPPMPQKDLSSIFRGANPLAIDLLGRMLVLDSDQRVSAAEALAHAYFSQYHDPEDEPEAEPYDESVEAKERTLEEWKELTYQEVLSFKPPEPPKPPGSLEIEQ
Sequence of Activin receptor type-2B (Homo sapiens) (Q13705 whole entry): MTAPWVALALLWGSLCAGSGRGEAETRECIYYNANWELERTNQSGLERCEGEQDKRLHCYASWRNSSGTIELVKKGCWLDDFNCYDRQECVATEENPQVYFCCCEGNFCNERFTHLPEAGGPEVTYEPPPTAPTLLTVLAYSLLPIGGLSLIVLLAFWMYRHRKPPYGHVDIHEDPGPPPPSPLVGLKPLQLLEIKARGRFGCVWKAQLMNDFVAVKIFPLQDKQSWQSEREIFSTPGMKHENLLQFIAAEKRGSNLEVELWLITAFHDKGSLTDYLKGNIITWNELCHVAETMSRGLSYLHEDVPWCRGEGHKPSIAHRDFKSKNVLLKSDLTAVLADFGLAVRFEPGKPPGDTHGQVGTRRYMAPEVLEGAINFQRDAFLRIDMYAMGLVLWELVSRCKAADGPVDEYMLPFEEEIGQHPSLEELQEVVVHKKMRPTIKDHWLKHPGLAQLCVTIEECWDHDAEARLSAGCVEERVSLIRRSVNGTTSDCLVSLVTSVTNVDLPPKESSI
Sequence of Serine/threonine-protein kinase 32C (Homo sapiens) (Q86UX6 whole entry): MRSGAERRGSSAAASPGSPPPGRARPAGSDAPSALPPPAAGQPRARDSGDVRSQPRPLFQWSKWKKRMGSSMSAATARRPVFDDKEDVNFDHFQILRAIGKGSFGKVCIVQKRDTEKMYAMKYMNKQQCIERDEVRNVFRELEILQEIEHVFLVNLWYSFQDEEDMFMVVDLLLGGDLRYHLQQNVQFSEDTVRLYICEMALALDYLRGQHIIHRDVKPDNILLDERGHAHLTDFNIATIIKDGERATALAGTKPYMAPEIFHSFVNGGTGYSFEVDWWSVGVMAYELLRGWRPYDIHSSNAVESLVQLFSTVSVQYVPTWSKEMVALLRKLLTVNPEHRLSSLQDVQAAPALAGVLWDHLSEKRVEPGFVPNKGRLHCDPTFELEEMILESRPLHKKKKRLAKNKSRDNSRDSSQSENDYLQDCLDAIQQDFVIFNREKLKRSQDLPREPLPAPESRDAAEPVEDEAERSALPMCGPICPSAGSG

SMILES: COc1cc(Nc2nc(C)cc(-c3cnn4nc(OC)ccc34)n2)cc(C(F)(F)F)c1
- % of control [1]: 92%

SMILES: Nc1cnc(N2CCc3cc(S(=O)(=O)Nc4c(F)cc(Cl)cc4F)cc(N4CCCC4=O)c32)nc1 [TP-020n]
- % of control [2]: 92%

SMILES: CC[C@@H]1[C@H](F)C(=O)N[C@@H]1COc1nccc2cc(C(N)=O)c(OC)cc12 [ZIMLOVISERTIB]
- % of inhibition ([3]; at 0.01 µM): 2.4%
- % of inhibition ([3]; at 0.04 µM): -6.6%
- % of inhibition ([3]; at 0.2 µM): -8.6%
- % of inhibition ([3]; at 1 µM): -32.8%
- % of inhibition ([3]; at 5 µM): -57.9%

SMILES: CCC(=O)N1CCN(c2ccc(-n3c(=O)ccc4cnc5ccc(-c6cnc7ccccc7c6)cc5c43)cc2C(F)(F)F)CC1
- % of control [4]: 100%

SMILES: Cc1cnc(Nc2ccc(F)cc2Cl)nc1-c1c[nH]c(C(=O)N[C@H](CO)c2cccc(Cl)c2)c1
- % of inhibition [5]: 25%

SMILES: Cn1cc(-n2cnc3c(NCc4nc5cc(Cl)c(Cl)cc5[nH]4)nc(N4CCOCC4)nc32)cn1
- % of inhibition [6]: -265%

SMILES: C=CC(=O)Nc1cccc(C(=O)Nc2ccc(Nc3cc(-c4[nH]c(SC)nc4C)ccn3)cc2)c1
- % of control ([7]; at 1 µM): 76%
- % of control ([7]; at 5 µM): 37%
- % of control ([8]; at 1 µM): 85%
- % of control ([8]; at 5 µM): 53%
- % of control ([9]; at 1 µM): 84%
- % of control ([9]; at 5 µM): 60%
